The numbers were not newly measured in patent publication US8636711B2 (priority 2010, dated 2014), which cites them from elsewhere.

With `NS(=O)(=O)c1cc(C(=O)O)c(NCc2ccco2)cc1Cl` [furosemide], the tolerability entry (intravenous or subcutaneous routes) was “generally well-tolerated”. The pH value (parenteral) is listed as 11-12.
